The text below walks through data of patent US20080090805A1, “CB-1 MODULATING COMPOUNDS AND THEIR USE” (ACADIA PHARMACEUTICALS INC., priority 2005, published 2008).

Where two headings read alike, the source gives them in different places.

What is called % Inhibition is the percentage by which the read-out fell short of the control. A higher % Inhibition goes with a response far below the control.

In the experiment the target is CB1 (mutant) (Homo sapiens, UniProt P21554). The experiment can be described thus: R-SAT functional receptor assay, CB1 (mutant, truncated after amino acid 417). It is filed as cell-based. Conditions: R-SAT CB1; for IC50: receptor form (mutant or wild-type) not stated; for Emax / % Inhibition: receptor form not stated, relative to SR141716 (100%); for Emax: read-out: % Inhibition.
CB1 (mutant), sequence (P21554 1-417, change not shown): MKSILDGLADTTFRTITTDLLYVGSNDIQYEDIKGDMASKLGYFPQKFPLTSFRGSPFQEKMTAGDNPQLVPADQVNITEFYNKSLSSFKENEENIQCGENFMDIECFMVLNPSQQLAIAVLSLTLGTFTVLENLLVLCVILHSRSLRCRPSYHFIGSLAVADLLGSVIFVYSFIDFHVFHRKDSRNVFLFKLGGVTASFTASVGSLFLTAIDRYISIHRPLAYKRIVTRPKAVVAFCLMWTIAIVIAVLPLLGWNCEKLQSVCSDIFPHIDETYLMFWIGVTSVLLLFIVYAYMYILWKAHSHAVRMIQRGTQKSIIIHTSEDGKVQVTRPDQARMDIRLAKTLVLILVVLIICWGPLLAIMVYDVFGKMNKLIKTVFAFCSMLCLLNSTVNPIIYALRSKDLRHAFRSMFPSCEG

Where [1] appears, read: Appendix A, read-out: pIC50 (converted).

Regarding `NS(=O)(=O)c1ccc(CNC(=O)c2ccc3c(c2)N=C(c2ccc(Cl)cc2)c2ccccc2S3)cc1` [drawing 746], the IC50 under setting [1] is 0.0794 µM. Further, the Emax (Appendix A) was 76%.

With `O=C(NN1CCCCC1)c1ccc2c(c1)N=C(C1CCCCC1)c1ccccc1S2` [drawing 861], the “% Inhibition” value (Appendix A) was 100%.

Take `CC(NC(=O)c1ccc2c(c1)N=C(c1ccc(Cl)cc1)c1ccccc1S2)c1ccccc1` (stereo not shown) [drawing 1107]: the IC50 under setting [1] is 0.0398 µM. Further, the Emax (Appendix A) is 88%.

With `NS(=O)(=O)c1ccc(CNC(=O)c2ccc3c(c2)N=C(NCc2ccc(Cl)cc2)c2ccccc2S3)cc1`, the IC50 under setting [1] is 1.58 µM. Besides, the Emax (Appendix A) is 41%.

Consider `CCOC(=O)N1CCC(NC(=O)c2ccc3c(c2)N=C(C2CCCCC2)c2ccccc2S3)CC1` [drawing 814], for which the Emax (Appendix A) is 95%.

Regarding `O=C(NC1CCCC1)c1ccc2c(c1)N=C(c1ccc(Cl)cc1Cl)c1ccccc1S2`, for the setting “Appendix A”, the Emax stood at 52%.

In the case of `CCCC1=Nc2cc(C(=O)NC(C)CCc3ccccc3)ccc2Sc2ccccc21` (stereo not shown), the IC50 under setting [1] is 0.0398 µM. The Emax (Appendix A) came out at 95%.

For the compound `CCCC1=Nc2cc(C(=O)NCCN(C)C3CCCCC3)ccc2Sc2ccccc21`, under setting [1], the IC50 is 2 µM. In addition, where the note is “Appendix A”, the Emax turned out to be 123%.

In the case of `CCOCCNC(=O)c1ccc2c(c1)N=C(c1ccc(OC)cc1)c1ccccc1S2`, the IC50 under setting [1] was 0.0794 µM. In addition, under “Appendix A”, the Emax was 90%.

Consider `O=C(NCc1ccccc1Br)c1ccc2c(c1)N=C(N1CCCCC1)c1ccccc1S2` [drawing 890], for which the IC50 under setting [1] is 0.2 µM. For the same compound, the Emax (Appendix A) worked out at 62%.

Turning to `CC(C)CNC(=O)c1ccc2c(c1)N=C(c1ccsc1)c1ccccc1S2` [drawing 581], the IC50 under setting [1] was 0.00316 µM. Besides, under “Appendix A”, the Emax worked out at 90%.

For `O=C(NN1CCCCCC1)c1ccc2c(c1)N=C(c1sccc1Cl)c1ccccc1S2`, the Emax (Appendix A) is 82%. The IC50 (pIC50, Appendix A) was 0.02 µM.

In the case of `CCCCNC(=O)c1ccc2c(c1)N=C(c1ccc(Cl)cn1)c1cc(F)ccc1S2` [drawing 560], the IC50 under setting [1] is 0.0501 µM. For the same compound, the Emax (Appendix A) came to 100%.

For `O=C(NCCc1ccncc1)c1ccc2c(c1)N=C(c1ccc(Cl)cc1Cl)c1ccccc1S2`, under setting [1], the IC50 was 0.316 µM. Under “Appendix A”, the Emax stood at 72%.

As to `O=C(NC1CCC(F)(F)CC1)c1ccc2c(c1)N=C(c1cccc(Cl)c1)c1ccccc1S2` [drawing 699], the Emax (Appendix A) was 91%. The IC50 (pIC50, Appendix A) was 0.00794 µM.

Turning to `O=C(c1ccc2c(c1)N=C(c1ccc(Cl)cc1)c1ccccc1S2)N1CCCCC1`, the Emax (Appendix A) is 95%. The same compound showed an IC50 (pIC50, Appendix A) of 0.0316 µM.

Regarding `CCCC1=Nc2cc(C(=O)NCCCN3CC(C)CC(C)C3)ccc2Sc2ccccc21` (stereo not shown), the IC50 under setting [1] is 0.631 µM. Also, the Emax (Appendix A) is 136%.

For `CCCC1=Nc2cc(C(=O)NC(C)CCN(C)C(=O)OCC)ccc2Sc2ccc(C)cc21` (stereo not shown), the IC50 under setting [1] was 1 µM. The Emax (Appendix A) worked out at 79%.

Take `COc1ccc(C2=Nc3cc(C(=O)NN4[C@H](C)CCC[C@@H]4C)ccc3Sc3ccccc32)cc1` [drawing 730]: under setting [1], the IC50 is 0.0794 µM. Further, under “Appendix A”, the Emax worked out at 99%.

`CCCNC(=O)c1ccc2c(c1)N=C(c1ccc(Cl)cc1F)c1ccccc1S2` [drawing 851]: the IC50 under setting [1] was 0.0126 µM. The Emax (Appendix A) is 101%.

In the case of `O=C(NCc1cccs1)c1ccc2c(c1)N=C(c1ccccc1F)c1ccccc1S2` [drawing 795], the IC50 under setting [1] was 0.01 µM. For the same compound, the Emax (Appendix A) is 114%.

Turning to `Cc1ccsc1C1=Nc2cc(C(=O)NN3CCCCC3)ccc2Sc2ccccc21` [drawing 1045], the IC50 under setting [1] was 0.0316 µM. The Emax (Appendix A) is 100%.

Consider `O=C(c1ccc2c(c1)N=C(N1CCCCC1)c1ccccc1S2)N1CCCCC1`, for which the IC50 under setting [1] is 0.2 µM. In addition, for the setting “Appendix A”, the Emax was found to be 89%.

With `CCOCCNC(=O)c1ccc2c(c1)N=C(c1cccc(Br)c1)c1ccccc1S2` [drawing 789], under setting [1], the IC50 was 0.01 µM. Where the note is “Appendix A”, the Emax was found to be 119%.

With `CC(C)CNC(=O)c1ccc2c(c1)N=C(c1ccc(Cl)cn1)c1ccc(F)cc1S2` [drawing 558], under setting [1], the IC50 is 0.0501 µM. Moreover, the Emax (Appendix A) is 123%.

For `O=C(NCc1ccco1)c1ccc2c(c1)N=C(c1cccc(Cl)c1)c1ccccc1S2` [drawing 583], the IC50 under setting [1] is 0.00316 µM. Further, where the note is “Appendix A”, the Emax was 100%.

On to `O=C(NCCC(F)(F)F)c1ccc2c(c1)N=C(c1ccc(Cl)s1)c1ccccc1S2` [drawing 663], for which the IC50 under setting [1] is 0.00631 µM. The Emax (Appendix A) stood at 95%.

In the case of `CCCC1=Nc2cc(C(=O)NCc3ccc(OC)cc3)ccc2Sc2ccccc21`, the Emax (Appendix A) turned out to be 96%. This compound also had an IC50 (pIC50, Appendix A) of 0.0251 µM.

`CC(C)NC(=O)c1ccc2c(c1)N=C(c1ccc(Br)cc1)c1ccccc1S2`: the Emax (Appendix A) was 83%.

Take `CCCNC(=O)c1ccc2c(c1)N=C(c1ncccc1C)c1ccccc1S2`: under setting [1], the IC50 is 0.501 µM. For the setting “Appendix A”, the Emax came to 63%.

Regarding `COc1ccc(C2=Nc3cc(C(=O)NC(C)C)ccc3Sc3ccccc32)cc1` [drawing 780], under setting [1], the IC50 was 0.1 µM. For the same compound, where the note is “Appendix A”, the Emax was 84%.

Take `CCCC1=Nc2cc(C(=O)N3CCN(c4cccc(C(F)(F)F)c4)CC3)ccc2Sc2ccccc21`: under setting [1], the IC50 is 0.251 µM. For the same compound, the Emax (Appendix A) was 91%.

For the compound `O=C(NCCc1ccc(Cl)cc1)c1ccc2c(c1)N=C(c1ccc(F)cc1)c1ccccc1S2` [drawing 673], the IC50 under setting [1] was 0.00631 µM. Also, the Emax (Appendix A) worked out at 107%.

For the compound `CCCC1=Nc2cc(C(=O)N3CCN(Cc4ccc5c(c4)OCO5)CC3)ccc2Sc2ccccc21`, the Emax (Appendix A) stood at 96%.

For the compound `CCCCNC(=O)c1ccc2c(c1)N=C(c1ccc(Cl)s1)c1ccccc1S2` [drawing 633], the IC50 under setting [1] is 0.00501 µM. Moreover, under “Appendix A”, the Emax stood at 92%.

With `CCCC1=Nc2cc(C(=O)NCCN(CC)c3ccccc3)ccc2Sc2ccccc21` [drawing 885], the IC50 under setting [1] is 0.0158 µM. Also, the Emax (Appendix A) was 106%.

As for `Cc1cccnc1C1=Nc2cc(C(=O)NCC(C)C)ccc2Sc2ccccc21`, the Emax (Appendix A) came out at 87%.

Take `O=C(NCCc1ccccn1)c1ccc2c(c1)N=C(c1cccc(Cl)c1)c1ccccc1S2` [drawing 999]: under setting [1], the IC50 is 0.0251 µM. Besides, for the setting “Appendix A”, the “% Inhibition” value came to 91%.

With `CC(C)NC(=O)c1ccc2c(c1)N=C(c1ccccc1F)c1ccccc1S2`, the IC50 under setting [1] was 0.251 µM. For the setting “Appendix A”, the Emax was 82%.

Regarding `Cc1ccc(N2CCN(C(=O)c3ccc4c(c3)N=C(CC(C)C)c3ccccc3S4)CC2)c(C)c1`, the IC50 under setting [1] was 0.251 µM. The Emax (Appendix A) turned out to be 105%.

Take `O=C(NCc1ccc(F)cc1)c1ccc2c(c1)N=C(C1CCCCC1)c1ccccc1S2(=O)=O` [drawing 917]: the IC50 under setting [1] is 0.0158 µM. Further, the Emax (Appendix A) came out at 120%.

Take `CCCCNC(=O)c1ccc2c(c1)N=C(c1ncccc1C)c1ccccc1S2`: the Emax (Appendix A) was 85%.

For the compound `CCCNC(=O)c1ccc2c(c1)N=C(c1ccc(Cl)s1)c1ccccc1S2` [drawing 675], the IC50 under setting [1] is 0.00631 µM. Also, for the setting “Appendix A”, the Emax stood at 88%.

In the case of `CC(C)CNC(=O)c1ccc2c(c1)N=C(c1ccc(F)cc1)c1ccccc1S2` [drawing 677], under setting [1], the IC50 is 0.00631 µM. For the same compound, the Emax (Appendix A) is 107%.

Take `O=C(NCCc1ccccn1)c1ccc2c(c1)N=C(c1ccc(F)cc1)c1ccccc1S2` [drawing 1145]: the IC50 under setting [1] is 0.0398 µM. The Emax (Appendix A) was found to be 101%.

`CCCCNC(=O)c1ccc2c(c1)N=C(c1cccc(F)c1)c1ccccc1S2` [drawing 719]: the IC50 under setting [1] is 0.00794 µM. Moreover, the Emax (Appendix A) amounted to 113%.

Take `O=C(NCCc1cccnc1)c1ccc2c(c1)N=C(c1cccc(F)c1)c1ccccc1S2` [drawing 981]: the Emax (Appendix A) was 94%. Further, the IC50 (pIC50, Appendix A) is 0.02 µM.

For `CC(C)NC(=O)c1ccc2c(c1)N=C(c1ccc(Cl)cc1)c1ccccc1S2` [drawing 576], the IC50 under setting [1] was 0.0501 µM. For the same compound, the Emax (Appendix A) is 98%.

In the case of `CC(C)NC(=O)c1ccc2c(c1)N=C(c1ccc(Cl)s1)c1ccccc1S2` [drawing 550], the IC50 under setting [1] is 0.0398 µM. Besides, for the setting “Appendix A”, the Emax worked out at 78%.

Take `O=C(NN1CCCCC1)c1ccc2c(c1)N=C(c1ccccc1Cl)c1ccccc1S2`: under setting [1], the IC50 was 0.501 µM. Besides, where the note is “Appendix A”, the Emax came to 45%.

Turning to `O=C(NCc1ccco1)c1ccc2c(c1)N=C(c1ccc(Cl)c(Cl)c1)c1ccccc1S2` [drawing 691], the IC50 under setting [1] is 0.00631 µM. In addition, under “Appendix A”, the Emax worked out at 97%.

With `Cc1cc(NC(=O)c2ccc3c(c2)N=C(c2cccc(F)c2)c2ccccc2S3)no1`, under setting [1], the IC50 is greater than 1.26 µM. Moreover, the Emax (Appendix A) was determined as 29%.

On to `CC(C)CNC(=O)c1ccc2c(c1)N=C(c1ccc(Cl)cc1Cl)c1ccccc1S2`, for which the IC50 under setting [1] was 0.0794 µM. Moreover, the Emax (Appendix A) stood at 87%.

In the case of `CCONC(=O)c1ccc2c(c1)N=C(c1cccc(Cl)c1)c1ccccc1S2`, under setting [1], the IC50 was 0.0794 µM. For the same compound, the Emax (Appendix A) stood at 90%.

As for `CC(C)CCNC(=O)c1ccc2c(c1)N=C(c1ccccn1)c1ccccc1S2` [drawing 967], the IC50 under setting [1] was 0.02 µM.

Consider `C[C@@H]1CCC[C@H](C)N1NC(=O)c1ccc2c(c1)N=C(c1cccc(Cl)c1)c1ccccc1S2` [drawing 847], for which the Emax (Appendix A) came out at 100%. The same compound had an IC50 (pIC50, Appendix A) of 0.0126 µM.

As to `O=C(NC1CCCCC1)c1ccc2c(c1)N=C(c1ccc(Cl)cc1)c1ccccc1S2` [drawing 844], the IC50 under setting [1] is 0.158 µM. Also, the “% Inhibition” value (Appendix A) stood at 97%.

`O=C(NCc1ccc(Cl)cc1Cl)c1ccc2c(c1)N=C(c1ccc(Cl)cc1)c1ccccc1S2` [drawing 901]: the IC50 under setting [1] was 0.0158 µM. Further, the Emax (Appendix A) is 101%.

Consider `O=C(NCCc1ccncc1)c1ccc2c(c1)N=C(c1ccc(Cl)cc1)c1ccccc1S2` [drawing 1135], for which the IC50 under setting [1] is 0.0398 µM. The Emax (Appendix A) was 116%.

In the case of `O=C(NCc1cccnc1)c1ccc2c(c1)N=C(c1cccc(Br)c1)c1ccccc1S2` [drawing 895], the IC50 under setting [1] is 0.0158 µM. Moreover, where the note is “Appendix A”, the Emax stood at 105%.

Take `O=C(NN1CCOCC1)c1ccc2c(c1)N=C(C1CCCCC1)c1ccccc1S2`: the IC50 under setting [1] is 0.0631 µM. Moreover, for the setting “Appendix A”, the Emax stood at 56%.

Consider `CCCC1=Nc2cc(C(=O)NCCCN(C)C3CCCCC3)ccc2Sc2ccccc21`, for which, for the setting “Appendix A”, the Emax stood at 120%.
